Here are results for 17 compounds from patent US8586542B2, “Small molecule apoptosis promoters” (Joyant Pharmaceuticals, Inc., priority 2006, dated 2013).

In one assay the test system is Wap-ras tumors. Briefly: In vivo therapy in the WAP-RAS transgenic model. On the set-up: species or system mice. The note with it: mimetic 20 mpk po; Paclitaxel 5 mpk ip.
Another assay has as its system HCC461 cells. The experiment in a line: Cell viability assay in HCC461 cells (WST-1). The following applies: read-out: HCC461 cell. The assay is classed as cell-based. The method, then:
HCC461 cells plated in 96 well plates at 5×10^4/ml cell density are treated with 50× synthetic Smac mimetic compounds (final concentration range between 30 uM and 0.001 uM). After 48 hrs incubation at 37° C. and 5% CO2, viability of the cells are measured using Cell Proliferation Reagent WST-1 assay kit (Roche Cat #11 644 807 001).
The tetrazolium salts are cleaved to formazan by cellular enzymes. An expansion in the number of viable cells results in an increase in the overall activity of mitochondrial dehydrogenases in the samples. This augmentation in the enzyme activity leads to an increase in the amount of formazan dye formed, which directly correlates to the number of metabolically active cells in the culture. Quantification of the formazan dye produced by metabolically active cells by using a microplate (ELISA) reader at 420-480 nm.

In a further assay the test system is Caspase3 in Hela S100. The experiment in a line: In-vitro caspase-3 activation assay in Hela S100 extract. The following applies: 100 nM compound, Hela S100, 1 mM dATP; slope versus control (compound 1 = Caspase std.). The format is biochemical. The method, then: Caspase3 in most cell extracts can be activated by the addition of 1 mM dATP through the mitochondria caspase pathway. […] Taking advantage of this feature, we use 100 nM of synthetic Smac mimetic compound to test its ability to eliminate IAPB in the Hela S100 and fully induce Caspase3 activity. The In Vitro Caspase3 assay is carried out at 30° C., incubating 100 nM compounds with 30 ug of Hela S100, 1 mM dATP, 10 uM Caspase3 fluorogenic substrate (Caspase3 Substrate II, Fluorogenic, #235425 from Calbiochem). The readout is caspase-3 activity represented by relative fluorogenic unit, which is recorded kinetically. The slope in linear region of the curve for each compound is calculated.
The ratio of each synthetic compound's slope versus the slope of control reflects in vitro caspase-3 activation ability of compounds.

For assay [1], the target named is T1, truncated XIAP containing only BIR1, BIR2, and BIR3 domains (Homo sapiens, UniProt P98170).
T1 construct: truncated XIAP containing only BIR1, BIR2, and BIR3 domains
T1 sequence (P98170 1-356 limits assumed): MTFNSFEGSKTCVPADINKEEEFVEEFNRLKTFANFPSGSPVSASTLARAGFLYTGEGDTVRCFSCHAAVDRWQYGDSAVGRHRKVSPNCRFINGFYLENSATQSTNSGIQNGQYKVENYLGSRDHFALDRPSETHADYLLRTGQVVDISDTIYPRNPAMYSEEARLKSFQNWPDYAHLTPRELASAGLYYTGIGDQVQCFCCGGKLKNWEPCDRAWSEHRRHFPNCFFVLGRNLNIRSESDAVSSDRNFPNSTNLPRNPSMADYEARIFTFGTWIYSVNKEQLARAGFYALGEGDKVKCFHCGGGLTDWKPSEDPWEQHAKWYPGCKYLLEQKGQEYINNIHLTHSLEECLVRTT
The experiment in a line: Fluorescent polarization assay (Bir binding). The following applies: competition with 2 nM fluorescein labeled AVPI peptide, room temperature, 1 hour. The method, then:
Increasing concentrations of Smac compounds are incubated with 2 nM of labeled peptide (fluorescein labeled 10 mer peptide with AVPI 4 amino acids at its N terminus-Alexa Fluor 488) and truncated XIAP containing only BIR1, BIR2, and BIR3 domains at room temperature for 1 hour. Fluorescence reading, indicative of the bound portion of the labeled peptide, is measured in milipolarization units (mP). The more compound added, less fluorescein labeled peptide bind to the protein due to the competitive binding and less fluorescence signal is released.
Based on this principle, we obtain the Ki value that evaluates compound's binding affinity.

The mark [2] stands for this setting: HCC461, 48 hrs incubation, WST-1 viability.

Each structure is given as a SMILES string. Like-named read-outs stand apart in the source and are kept apart here.

Method for Wap-ras tumors: Mimetic and Paclitaxel combination efficacy is also evaluated in the Wap-ras transgenic model.
Mimetics (20 mpk/dosing po) are dissolved in 20% hydroxyl-propyl-betacyclodexatrin (Vehicle I). 0.2 ml of mimetic solution is the oral dosing volume. Paclitaxel (5 mpk/dosing ip) is dissolved in a diluted ethanol/cremophor EL solution (vehicle II) and the i.p. dosing volume for paclitaxel is 0.1 ml.
The mice are weighed, randomized, and ear-marked on Day 0. Mimetic treatment and Vehicle I treatment is begun on Day 1 and continued every 12 hours until Day 21. Paclitaxel and Vehicle II treatments are started on Day 4 and continued daily on Day 5, 6, and 7.

`CC(=O)O[C@H]1C(=O)[C@@]2(C)[C@H]([C@H](OC(=O)c3ccccc3)[C@]3(O)C[C@H](OC(=O)[C@H](O)[C@@H](NC(=O)c4ccccc4)c4ccccc4)C(C)=C1C3(C)C)[C@]1(OC(C)=O)CO[C@@H]1C[C@@H]2O` [Paclitaxel]: the “tumor response to treatment, single agent” value with Wap-ras tumors is on record as “do not respond”.

As to `CN[C@@H](C)C(=O)N[C@@H](CC#CC#CC[C@H](NC(=O)[C@H](C)NC)C(=O)N1CCC[C@H]1C(=O)N[C@@H]1CCCc2ccccc21)C(=O)N1CCC[C@H]1C(=O)N[C@@H]1CCCc2ccccc21` [Compound 1], in the assay on HCC461 cells (HCC461, 48 h), the IC50 came to 0.004 µM. The compound further gave a Caspase % with Caspase3 in Hela S100 of 100%. The compound further showed a Bir binding in assay [1] of 0.07 µM.

With `CC[C@H](NC)C(=O)N[C@H](C(=O)N1CCCC1)c1ccc(C#CCO[C@H](C)[C@H](NC(=O)[C@H](C)NC)C(=O)N2CCC[C@H]2C(=O)N[C@@H]2CCCc3ccccc32)cc1.Cl.Cl` [Compound 37], in the assay with HCC461 cells (setting [2]), the IC50 is 0.2 µM. The compound also showed a Caspase % in the assay on Caspase3 in Hela S100 of 59%. The same compound showed a Bir binding in assay [1] of 0.3 µM.

With `CN[C@@H](C)C(=O)N[C@H](C(=O)N1CCC[C@H]1C(=O)N[C@@H]1CCCc2ccccc21)[C@@H](C)OCc1nnn2c1-c1c(CO[C@H](C)[C@H](NC(=O)[C@H](C)NC)C(=O)N3CCC[C@H]3C(=O)N[C@@H]3CCCc4ccccc43)nnn1CCC2.Cl.Cl` [Compound 19], the IC50 in the assay on HCC461 cells (setting [2]) came out at 0.24 µM. Moreover, the Caspase % in the assay with Caspase3 in Hela S100 was found to be 98%. In assay [1], this compound returned a Bir binding of 0.14 µM.

For `CN[C@@H](C)C(=O)N[C@@H](CC#CC#CC[C@H](NC(=O)[C@H](C)NC)C(=O)N1CCC[C@H]1C(=O)NC(C)c1ccccc1)C(=O)N1CCC[C@H]1C(=O)NC(C)c1ccccc1` (stereo partly shown) [Compound 7], the IC50 with HCC461 cells (setting [2]) stood at 0.373 µM. Besides, in the assay with Caspase3 in Hela S100, the Caspase % is listed as 101%. This compound also displayed a Bir binding in assay [1] of 0.144 µM.

On to `CNC(C)C(=O)N[C@@H](CC#CC#CC[C@H](NC(=O)[C@H](C)NC)C(=O)N1CCC[C@H]1C(=O)NC(c1ccccc1)c1ccccc1)C(=O)N1CCC[C@H]1C(=O)NC(c1ccccc1)c1ccccc1` (stereo partly shown) [Compound 3], for which the IC50 with HCC461 cells (setting [2]) turned out to be 0.026 µM. Further, the Caspase % with Caspase3 in Hela S100 came to 48%. Also, the Bir binding in assay [1] came to 0.12 µM.

As to `CN[C@@H](C)C(=O)N[C@@H](CCCc1ccc(C[C@H](NC(=O)[C@H](C)NC)C(=O)N2CCC[C@H]2C(=O)N[C@@H]2CCCc3ccccc32)cc1)C(=O)N1CCC[C@H]1C(=O)N[C@@H]1CCCc2ccccc21.Cl.Cl` [Compound 41], the IC50 in the assay with HCC461 cells (setting [2]) came out at 0.02 µM. The same compound came in with a Caspase % in the assay on Caspase3 in Hela S100 of 99%. Besides, the Bir binding in assay [1] amounted to 0.3 µM.

Regarding `CN[C@@H](C)C(=O)N[C@@H](Cc1ccc(C#CC[C@H](NC(=O)[C@H](C)NC)C(=O)N2CCC[C@H]2C(=O)N[C@@H]2CCCc3ccccc32)cc1)C(=O)N1CCC[C@H]1C(=O)NC1CCCc2ccccc21.Cl` (stereo partly shown) [Compound 36], the IC50 in the assay with HCC461 cells (setting [2]) was determined as 0.05 µM. In addition, the Caspase % in the assay on Caspase3 in Hela S100 worked out at 98%. Besides, in assay [1], the Bir binding came to 0.19 µM.

Turning to `CN[C@@H](C)C(=O)N[C@@H](CCCCCC[C@H](NC(=O)[C@H](C)NC)C(=O)N1CCC[C@H]1C(=O)NC(C)c1ccccc1)C(=O)N1CCC[C@H]1C(=O)NC(C)c1ccccc1` (stereo partly shown) [Compound 8], the IC50 in the assay with HCC461 cells (setting [2]) was 0.07 µM. This compound also gave a Caspase % in the assay with Caspase3 in Hela S100 of 93%. Besides, the Bir binding in assay [1] came to 0.27 µM.

On to `CN[C@@H](C)C(=O)N[C@@H](CC#CC#CCO[C@H](C)[C@H](NC(=O)[C@H](C)NC)C(=O)N1CCCC1C(=O)N[C@@H]1CCCc2ccccc21)C(=O)N1CCCC1C(=O)N[C@@H]1CCCc2ccccc21.Cl.Cl` (stereo partly shown) [Compound 13], for which the IC50 in the assay on HCC461 cells (setting [2]) was 0.07 µM. In addition, the Caspase % in the assay on Caspase3 in Hela S100 came out at 105%. In addition, the Bir binding in assay [1] came out at 0.188 µM.

As for `CN[C@@H](C)C(=O)N[C@H](C(=O)N1CCC[C@H]1C(=O)N[C@@H]1CCCc2ccccc21)[C@@H](C)OCC#CC=CCO[C@H](C)[C@H](NC(=O)[C@H](C)NC)C(=O)N1CCC[C@H]1C(=O)N[C@@H]1CCCc2ccccc21.Cl.Cl` [Compound 11], in the assay on HCC461 cells (setting [2]), the IC50 came to 0.012 µM. The compound also had a Caspase % in the assay on Caspase3 in Hela S100 of 94%. The compound also registered a Bir binding in assay [1] of 0.172 µM.

In the case of `CN[C@@H](C)C(=O)N[C@@H](CCCc1ccc([C@H](NC(=O)[C@H](C)NC)C(=O)N2CCC[C@H]2C(=O)N[C@@H]2CCCc3ccccc32)cc1)C(=O)N1CCC[C@H]1C(=O)N[C@@H]1CCCc2ccccc21` [Compound 28], the IC50 in the assay with HCC461 cells (setting [2]) came out at 0.07 µM. The Caspase % in the assay with Caspase3 in Hela S100 came out at 102%. Besides, in assay [1], the Bir binding was 0.2 µM.

Take `CN[C@@H](C)C(=O)N[C@H](C(=O)N1CCC[C@H]1C(=O)N[C@@H]1CCCc2ccccc21)[C@@H](C)OCc1cn(CCn2cc(CO[C@H](C)[C@H](NC(=O)[C@H](C)NC)C(=O)N3CCC[C@H]3C(=O)N[C@@H]3CCCc4ccccc43)nn2)nn1.Cl.Cl` [Compound 22]: the IC50 in the assay on HCC461 cells (setting [2]) amounted to 0.81 µM. The compound further came in with a Caspase % in the assay with Caspase3 in Hela S100 of 106%. For the same compound, the Bir binding in assay [1] was 0.13 µM.

On to `CN[C@@H](C)C(=O)N[C@@H](CCCCCC[C@H](NC(=O)[C@H](C)NC)C(=O)N1CCC[C@H]1C(=O)N[C@@H]1CCCc2ccccc21)C(=O)N1CCC[C@H]1C(=O)N[C@@H]1CCCc2ccccc21` [Compound 2], for which the IC50 in the assay with HCC461 cells (HCC461, 48 h) is 0.01 µM. In the assay with Caspase3 in Hela S100, the Caspase % is recorded as 105%. The compound further displayed a Bir binding in assay [1] of 0.15 µM.

`CNC(C)C(=O)N[C@@H](CCCCCC[C@H](NC(=O)[C@H](C)NC)C(=O)N1CCC[C@H]1C(=O)NC(c1ccccc1)c1ccccc1)C(=O)N1CCC[C@H]1C(=O)NC(c1ccccc1)c1ccccc1` (stereo partly shown) [Compound 4]: the IC50 with HCC461 cells (setting [2]) was 0.025 µM. In addition, the Caspase % with Caspase3 in Hela S100 is given as 55%. Besides, the Bir binding in assay [1] came out at 0.11 µM.

As for `CN[C@@H](C)C(=O)N[C@@H](CCCCNC(=O)c1ccc(C(=O)NCCCC[C@H](NC(=O)[C@H](C)NC)C(=O)N2CCC[C@H]2C(=O)N[C@@H]2CCCc3ccccc32)cc1)C(=O)N1CCC[C@H]1C(=O)N[C@@H]1CCCc2ccccc21.Cl.Cl` [Compound 49], in the assay on HCC461 cells (setting [2]), the IC50 is 0.02 µM. The same compound yielded a Caspase % in the assay with Caspase3 in Hela S100 of 113%. In assay [1], this compound registered a Bir binding of 0.19 µM.

Take `CN[C@@H](C)C(=O)N[C@@H](Cc1ccc(OC/C=C\COc2ccc(C[C@H](NC(=O)[C@H](C)NC)C(=O)N3CCCC3C(=O)N[C@@H]3CCCc4ccccc43)cc2)cc1)C(=O)N1CCCC1C(=O)N[C@@H]1CCCc2ccccc21.Cl.Cl` (stereo partly shown) [Compound 44]: the IC50 with HCC461 cells (setting [2]) is 0.003 µM. The same compound yielded a Caspase % in the assay with Caspase3 in Hela S100 of 104%. The same compound showed a Bir binding in assay [1] of 0.18 µM.
